Measured values taken from publication PMC4894917, “Differences in Enzymatic Properties of the Saccharomyces kudriavzevii and Saccharomyces uvarum Alcohol Acetyltransferases and Their Impact on Aroma-Active Compounds Production” (Frontiers in Microbiology, 2016).

Assays:
SuAtf2p = molecular target: T1, SuAtf2p (Saccharomyces uvarum, UniProt A0ABN8WWD5); experiment: acetate ester formation by headspace SPME gas chromatography, cell extract; type: biochemical; details: acetyl-CoA 0.8 mM, 50 mM potassium phosphate pH 7.5, 10% glycerol
T1 construct: gene SUVZ07G4070; full-length untagged, pG-SuATF2-TDH3p in S. cerevisiae BY4741 atf1 atf2 iah1, cell extract (strain CLpSuATF2); N-terminus MDSLEEY translated from printed primer pGSuATF2f
T1 sequence (A0ABN8WWD5 1-545): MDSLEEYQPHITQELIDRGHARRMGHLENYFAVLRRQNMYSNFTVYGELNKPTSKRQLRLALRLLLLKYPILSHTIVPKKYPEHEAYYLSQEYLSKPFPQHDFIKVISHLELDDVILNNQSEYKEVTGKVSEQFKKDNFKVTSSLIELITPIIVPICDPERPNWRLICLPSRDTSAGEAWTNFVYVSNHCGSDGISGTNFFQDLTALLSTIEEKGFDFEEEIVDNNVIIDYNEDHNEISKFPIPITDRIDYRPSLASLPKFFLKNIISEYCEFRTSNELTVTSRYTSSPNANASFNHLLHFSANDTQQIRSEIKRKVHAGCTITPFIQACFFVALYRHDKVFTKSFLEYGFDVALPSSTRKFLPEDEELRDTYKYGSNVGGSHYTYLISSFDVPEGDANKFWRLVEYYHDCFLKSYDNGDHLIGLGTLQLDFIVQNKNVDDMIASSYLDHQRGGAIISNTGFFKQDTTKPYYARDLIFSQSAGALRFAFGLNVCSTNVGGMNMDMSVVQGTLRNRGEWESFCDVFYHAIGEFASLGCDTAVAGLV

SkAtf2p = molecular target: T2, SkAtf2p (Saccharomyces kudriavzevii, UniProt A0AA35JHW3); experiment: as above; type: biochemical; details: acetyl-CoA 0.8 mM, 50 mM potassium phosphate pH 7.5, 10% glycerol
T2 construct: gene SKDI07G4300; full-length untagged, pG-SkATF2-TDH3p in S. cerevisiae BY4741 atf1 atf2 iah1, cell extract (strain CLpSkATF2); N-terminus MDDIEEY translated from printed primer pGSkATF2f
T2 sequence (A0AA35JHW3 1-535): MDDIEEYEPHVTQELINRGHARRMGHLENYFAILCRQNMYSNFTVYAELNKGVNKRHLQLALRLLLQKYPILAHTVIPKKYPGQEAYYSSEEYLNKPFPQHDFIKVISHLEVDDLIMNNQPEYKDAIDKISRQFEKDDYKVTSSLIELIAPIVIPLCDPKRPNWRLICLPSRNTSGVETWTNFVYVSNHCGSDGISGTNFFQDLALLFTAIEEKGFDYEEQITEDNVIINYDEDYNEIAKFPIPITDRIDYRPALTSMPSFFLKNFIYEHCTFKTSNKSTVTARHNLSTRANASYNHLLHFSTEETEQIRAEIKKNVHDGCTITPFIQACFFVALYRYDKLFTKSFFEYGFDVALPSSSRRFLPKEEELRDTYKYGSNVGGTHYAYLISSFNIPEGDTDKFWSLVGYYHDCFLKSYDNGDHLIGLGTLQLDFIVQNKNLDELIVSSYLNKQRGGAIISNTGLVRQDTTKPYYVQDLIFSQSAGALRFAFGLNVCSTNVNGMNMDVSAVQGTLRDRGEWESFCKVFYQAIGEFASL

ScAtf2p = molecular target: T3, ScAtf2p (Saccharomyces cerevisiae, UniProt P53296); experiment: as above; type: biochemical; details: acetyl-CoA 0.8 mM, 50 mM potassium phosphate pH 7.5, 10% glycerol
T3 construct: gene ATF2; full-length untagged, pG-ScATF2-TDH3p in S. cerevisiae BY4741 atf1 atf2 iah1, cell extract (strain CLpScATF2)
T3 sequence (P53296 1-535): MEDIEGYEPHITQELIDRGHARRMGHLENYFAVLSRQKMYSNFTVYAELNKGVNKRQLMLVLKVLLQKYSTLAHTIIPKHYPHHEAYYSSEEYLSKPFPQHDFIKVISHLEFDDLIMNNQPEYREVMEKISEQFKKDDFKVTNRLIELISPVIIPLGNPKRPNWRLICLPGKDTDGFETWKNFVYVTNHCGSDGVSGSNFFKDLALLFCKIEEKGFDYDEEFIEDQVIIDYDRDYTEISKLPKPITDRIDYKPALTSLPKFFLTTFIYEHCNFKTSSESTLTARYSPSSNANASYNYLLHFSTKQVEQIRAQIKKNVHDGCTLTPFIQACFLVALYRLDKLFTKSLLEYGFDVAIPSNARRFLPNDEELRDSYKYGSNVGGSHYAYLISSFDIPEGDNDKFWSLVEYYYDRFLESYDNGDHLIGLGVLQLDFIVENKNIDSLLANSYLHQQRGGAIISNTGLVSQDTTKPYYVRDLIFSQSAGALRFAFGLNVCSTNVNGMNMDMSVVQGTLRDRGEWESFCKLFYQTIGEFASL

[1] = substrate: CC(C)CCO; experiment: isoamyl acetate formation by headspace SPME gas chromatography, cell extract; type: biochemical, Saccharomyces cerevisiae; details: acetyl-CoA 0.8 mM, 50 mM potassium phosphate pH 7.5, 10% glycerol, isoamyl alcohol 0.01-100 mM
Source text: isoamyl acetate formation by headspace SPME gas chromatography, cell extract on ScAtf1p

[2] = substrate: CC(C)CCO; experiment: as above; type: biochemical, Saccharomyces uvarum; details: acetyl-CoA 0.8 mM, 50 mM potassium phosphate pH 7.5, 10% glycerol, isoamyl alcohol 0.01-100 mM
Source text: isoamyl acetate formation by headspace SPME gas chromatography, cell extract on SuAtf1p

OCCc1ccccc1 [2-phenylethanol]
acetate ester formation by headspace SPME gas chromatography, cell extract (SuAtf2p; 30 mM alcohol): the proportion of the enzyme activity of SkAtf2p and SuAtf2p to 2-phenylethanol
acetate ester formation by headspace SPME gas chromatography, cell extract (SkAtf2p; 30 mM alcohol): the proportion of the enzyme activity of SkAtf2p and SuAtf2p to 2-phenylethanol
acetate ester formation by headspace SPME gas chromatography, cell extract (ScAtf2p; 30 mM alcohol): all the strains that expressed the individual ATF1 and ATF2 orthologs exhibited activities

CC(C)CCO [isoamyl alcohol]
acetate ester formation by headspace SPME gas chromatography, cell extract (SuAtf2p; 100 mM alcohol): enzymes Atf2 showed considerably stronger activity toward isoamyl alcohol than the other substrates
acetate ester formation by headspace SPME gas chromatography, cell extract (SkAtf2p; 100 mM alcohol): enzymes Atf2 showed considerably stronger activity toward isoamyl alcohol than the other substrates
acetate ester formation by headspace SPME gas chromatography, cell extract (ScAtf2p; 100 mM alcohol): enzymes Atf2 showed considerably stronger activity toward isoamyl alcohol than the other substrates

B1: ScAtf1p (Saccharomyces cerevisiae S288C) (protein)
chain: MNEIDEKNQAPVQQECLKEMIQNGHARRMGSVEDLYVALNRQNLYRNFCTYGELSDYCTRDQLTLALREICLKNPTLLHIVLPTRWPNHENYYRSSEYYSRPHPVHDYISVLQELKLSGVVLNEQPEYSAVMKQILEEFKNSKGSYTAKIFKLTTTLTIPYFGPTGPSWRLICLPEEHTEKWKKFIFVSNHCMSDGRSSIHFFHDLRDELNNIKTPPKKLDYIFKYEEDYQLLRKLPEPIEKVIDFRPPYLFIPKSLLSGFIYNHLRFSSKGVCMRMDDVEKTDDVVTEIINISPTEFQAIKANIKSNIQGKCTITPFLHVCWFVSLHKWGKFFKPLNFEWLTDIFIPADCRSQLPDDDEMRQMYRYGANVGFIDFTPWISEFDMNDNKENFWPLIEHYHEVISEALRNKKHLHGLGFNIQGFVQKYVNIDKVMCDRAIGKRRGGTLLSNVGLFNQLEEPDAKYSICDLAFGQFQGSWHQAFSLGVCSTNVKGMNIVVASTKNVVGSQESLEELCSIYKALLLGP
notes: full-length untagged, pG-ScATF1-TDH3p in S. cerevisiae BY4741 atf1 atf2 iah1, cell extract (strain CLpScATF1)
Km [1]: 32.2 ± 2.2 mM
Vmax [1]: 0.00999 µmol/min/mg

B2: SuAtf1p (Saccharomyces uvarum) (protein)
chain: MNTYSEKTSLVQDECLAKMIQNGHSRRMGSVEDLYAALNRQKLYRNFSTYSELNDYCTKDQLTLALRNICLKNPTLLHIVLPARWPDYENYYLSTEYYSQPHPKHDYISVLPELKFDGVILNEQPEHNALMKQILQELKDNNGSYTAKVFKLTTALTIPYAGPTSPTWRLICLPEEGHTDKWKKFIFLSNHCMCDGRSSIHFFQDLRDELNNMKTPPKKLDYIFQYEKDYQLLRKLPEPIENMIDFRPPYMFIPKSLISGFIYSHLRFSSKGVCTRMDEIEKSDEVVTEIITISPSEFQKIKAIIKSNIPGKCTITPFLEVCWFVSLHKWGKFFKPLKFEWLTDVFIPADCRSLLPEDEEVRAMYRYGANVGFVDFTPWISEFNMNDSKENFWPLIAHYHEVISGAIKDKKHLNGLGFNIQGLVQKYVNIDKVMRDRALGKSRGGTLLSNVGIFHQSEETDSRYSIRDLAFGQFQGSWHQAFSLGVCSTNVKGMNIVISSTKNVVGSQESLEELCAMYKALLLNP
notes: full-length untagged, pG-SuATF1-TDH3p in S. cerevisiae BY4741 atf1 atf2 iah1, cell extract (strain CLpSuATF1); N-terminus MNTYSE translated from printed primer pGSuATF1f
Km [2]: 92.9 ± 10.9 mM
Vmax [2]: 0.00569 µmol/min/mg
